From paper PMC12518996 (Frontiers in Pharmacology, 2025)

Assays:
Type in all cases: in vitro ADME
CYP2E1 = CYP2E1 (Homo sapiens, UniProt P05181); experiment: Metabolite formation by recombinant human CYP2E1; details: trazodone 4 μM; NADPH; 37 °C, 40 min
Protocol: (§1) To confirm the role of individual CYP isoforms in metabolizing trazodone, recombinant human and rat CYP enzymes were employed in separate incubations. […] Each reaction was terminated with acetonitrile, centrifuged, and the supernatant was analyzed by identical UHPLC-Orbitrap setup outlined in §2.2, allowing direct comparison of metabolite spectra across all in-vitro systems. […] This procedure helped confirm the contributions of individual isoforms to specific biotransformation reactions.

CYP2B6 = target: T1, CYP2B6 (Homo sapiens, UniProt P20813); experiment: Metabolite formation by recombinant human CYP2B6; details: trazodone 4 μM; NADPH; 37 °C, 40 min
T1 sequence (P20813 1-491): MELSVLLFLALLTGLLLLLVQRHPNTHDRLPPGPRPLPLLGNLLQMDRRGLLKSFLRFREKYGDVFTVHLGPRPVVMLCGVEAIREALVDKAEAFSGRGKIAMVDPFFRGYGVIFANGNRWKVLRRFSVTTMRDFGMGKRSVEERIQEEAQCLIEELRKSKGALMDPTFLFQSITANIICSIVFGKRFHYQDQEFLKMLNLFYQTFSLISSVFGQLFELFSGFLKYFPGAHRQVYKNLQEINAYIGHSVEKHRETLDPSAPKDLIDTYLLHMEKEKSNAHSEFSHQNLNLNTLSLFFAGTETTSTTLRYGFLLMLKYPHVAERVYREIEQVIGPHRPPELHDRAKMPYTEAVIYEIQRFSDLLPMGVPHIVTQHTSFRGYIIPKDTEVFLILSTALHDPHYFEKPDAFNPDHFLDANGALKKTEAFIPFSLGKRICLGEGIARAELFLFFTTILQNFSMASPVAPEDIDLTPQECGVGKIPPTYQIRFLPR
Protocol: as §1

FMO3 = target: T2, FMO3 (Homo sapiens, UniProt P31513); experiment: Metabolite formation by recombinant human FMO3; details: trazodone 4 μM; 37 °C, 40 min
T2 sequence (P31513 1-532): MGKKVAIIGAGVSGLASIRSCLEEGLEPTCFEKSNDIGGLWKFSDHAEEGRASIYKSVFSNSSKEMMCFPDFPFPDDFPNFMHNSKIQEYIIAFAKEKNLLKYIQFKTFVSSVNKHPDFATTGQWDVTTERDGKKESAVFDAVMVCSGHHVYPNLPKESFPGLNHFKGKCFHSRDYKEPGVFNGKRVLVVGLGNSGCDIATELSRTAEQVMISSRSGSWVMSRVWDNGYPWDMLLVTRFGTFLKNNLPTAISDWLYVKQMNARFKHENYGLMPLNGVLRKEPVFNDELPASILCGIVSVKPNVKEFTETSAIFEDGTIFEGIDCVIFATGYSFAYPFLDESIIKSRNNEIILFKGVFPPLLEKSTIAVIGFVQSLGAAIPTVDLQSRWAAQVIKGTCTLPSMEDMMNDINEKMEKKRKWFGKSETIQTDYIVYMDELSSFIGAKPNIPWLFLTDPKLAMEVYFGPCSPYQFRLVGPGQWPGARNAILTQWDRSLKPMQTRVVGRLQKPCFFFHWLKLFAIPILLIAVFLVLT

MAOB = target: T3, MAOB (Homo sapiens, UniProt P27338); experiment: Metabolite formation by recombinant human MAOB; details: trazodone 4 μM; 37 °C, 40 min
T3 sequence (P27338 1-520): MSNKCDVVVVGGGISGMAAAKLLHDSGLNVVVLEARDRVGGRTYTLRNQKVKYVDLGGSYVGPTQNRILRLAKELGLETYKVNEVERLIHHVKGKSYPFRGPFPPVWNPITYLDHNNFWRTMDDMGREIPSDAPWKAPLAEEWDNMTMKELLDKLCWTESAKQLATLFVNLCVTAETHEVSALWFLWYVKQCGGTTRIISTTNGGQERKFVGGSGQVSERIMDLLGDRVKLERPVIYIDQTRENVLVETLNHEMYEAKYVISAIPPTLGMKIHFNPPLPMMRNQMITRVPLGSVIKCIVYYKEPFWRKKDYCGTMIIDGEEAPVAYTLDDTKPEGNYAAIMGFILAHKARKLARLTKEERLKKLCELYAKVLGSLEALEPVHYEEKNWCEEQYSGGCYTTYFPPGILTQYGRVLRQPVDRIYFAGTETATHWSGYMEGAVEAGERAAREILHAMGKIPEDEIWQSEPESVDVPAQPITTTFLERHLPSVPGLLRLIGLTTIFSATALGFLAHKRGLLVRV

CYP2A6 = target: T4, CYP2A6 (Homo sapiens, UniProt P11509); experiment: Metabolite formation by recombinant human CYP2A6; details: trazodone 4 μM; NADPH; 37 °C, 40 min
T4 sequence (P11509 1-494): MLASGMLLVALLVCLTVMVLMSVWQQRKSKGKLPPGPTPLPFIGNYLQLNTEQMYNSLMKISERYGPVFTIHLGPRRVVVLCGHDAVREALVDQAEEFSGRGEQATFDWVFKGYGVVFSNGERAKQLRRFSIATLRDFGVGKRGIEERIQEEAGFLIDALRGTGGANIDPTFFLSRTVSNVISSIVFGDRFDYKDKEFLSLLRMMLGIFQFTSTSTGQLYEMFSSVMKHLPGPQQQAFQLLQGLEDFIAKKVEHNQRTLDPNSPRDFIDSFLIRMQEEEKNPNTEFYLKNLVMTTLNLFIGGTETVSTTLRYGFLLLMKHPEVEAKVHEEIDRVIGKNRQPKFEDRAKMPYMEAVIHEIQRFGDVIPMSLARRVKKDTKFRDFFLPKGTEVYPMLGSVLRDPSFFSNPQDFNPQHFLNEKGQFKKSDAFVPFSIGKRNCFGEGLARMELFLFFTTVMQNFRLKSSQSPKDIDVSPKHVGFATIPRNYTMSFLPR
Protocol: as §1

CYP3A5 = CYP3A5 (Homo sapiens, UniProt P20815); experiment: Metabolite formation by recombinant human CYP3A5; details: trazodone 4 μM; NADPH; 37 °C, 40 min
Protocol: Each reaction was terminated with acetonitrile, centrifuged, and the supernatant was analyzed by identical UHPLC-Orbitrap setup outlined in §2.2, allowing direct comparison of metabolite spectra across all in-vitro systems.

Sequence of CYP3A5 (P20815 whole entry): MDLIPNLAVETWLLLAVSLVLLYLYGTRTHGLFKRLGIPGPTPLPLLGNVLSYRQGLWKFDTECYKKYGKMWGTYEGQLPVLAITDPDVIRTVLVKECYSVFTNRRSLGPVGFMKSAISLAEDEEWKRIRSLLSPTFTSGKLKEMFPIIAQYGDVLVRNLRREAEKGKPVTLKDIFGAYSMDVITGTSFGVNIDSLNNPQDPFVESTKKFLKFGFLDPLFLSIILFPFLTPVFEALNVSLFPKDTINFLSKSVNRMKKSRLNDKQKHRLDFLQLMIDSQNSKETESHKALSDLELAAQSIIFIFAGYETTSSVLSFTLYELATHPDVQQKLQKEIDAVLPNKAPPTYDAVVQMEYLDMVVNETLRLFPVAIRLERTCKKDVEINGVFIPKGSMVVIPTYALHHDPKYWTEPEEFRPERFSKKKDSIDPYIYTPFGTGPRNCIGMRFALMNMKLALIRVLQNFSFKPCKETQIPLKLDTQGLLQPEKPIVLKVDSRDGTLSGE
Sequence of CYP2E1 (P05181 whole entry, canonical isoform): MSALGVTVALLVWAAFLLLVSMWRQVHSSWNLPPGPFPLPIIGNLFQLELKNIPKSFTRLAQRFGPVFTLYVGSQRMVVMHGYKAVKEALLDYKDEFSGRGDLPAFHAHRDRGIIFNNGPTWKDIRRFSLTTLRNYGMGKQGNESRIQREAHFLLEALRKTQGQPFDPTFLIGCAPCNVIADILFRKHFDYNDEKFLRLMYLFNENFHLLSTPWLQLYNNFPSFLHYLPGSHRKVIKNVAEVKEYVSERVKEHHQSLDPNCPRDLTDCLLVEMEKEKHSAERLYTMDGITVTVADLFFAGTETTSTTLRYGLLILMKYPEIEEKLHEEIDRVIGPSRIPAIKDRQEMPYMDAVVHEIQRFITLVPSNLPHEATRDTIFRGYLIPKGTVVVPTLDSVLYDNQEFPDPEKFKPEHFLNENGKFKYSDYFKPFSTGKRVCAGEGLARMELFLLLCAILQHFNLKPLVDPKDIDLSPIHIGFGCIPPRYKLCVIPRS

For `Clc1cccc(N2CCNCC2)c1` [mCPP, m-chlorophenylpiperazine], the “Formation of trazodone phase I metabolite by recombinant human CYP2E1 (as LC/MS peak areas)” value (CYP2E1) was 16, the “Formation of trazodone phase I metabolite by recombinant human CYP2B6 (as LC/MS peak areas)” value (CYP2B6) was 112 and the “Formation of trazodone phase I metabolite by recombinant human FMO3 (as LC/MS peak areas)” value (FMO3) was 4. The “Formation of trazodone phase I metabolite by recombinant human MAOB (as LC/MS peak areas)” value (MAOB) was 20, the “Formation of trazodone phase I metabolite by recombinant human CYP2A6 (as LC/MS peak areas)” value (CYP2A6) was 8 and the “Formation of trazodone phase I metabolite by recombinant human CYP3A5 (as LC/MS peak areas)” value (CYP3A5) was 16847.
In the case of `O=c1n(CCCO)nc2ccccn12` [Metabolite M20], the “Formation of trazodone phase I metabolite by recombinant human CYP2E1 (as LC/MS peak areas)” value (CYP2E1) is reported as 0, the “Formation of trazodone phase I metabolite by recombinant human CYP2B6 (as LC/MS peak areas)” value (CYP2B6) is reported as 0 and the “Formation of trazodone phase I metabolite by recombinant human FMO3 (as LC/MS peak areas)” value (FMO3) is reported as 0. The “Formation of trazodone phase I metabolite by recombinant human MAOB (as LC/MS peak areas)” value (MAOB) was 0, the “Formation of trazodone phase I metabolite by recombinant human CYP2A6 (as LC/MS peak areas)” value (CYP2A6) was 0 and the “Formation of trazodone phase I metabolite by recombinant human CYP3A5 (as LC/MS peak areas)” value (CYP3A5) was 108.
With `O=c1n(CCCN2CCNCC2)nc2ccccn12` [Metabolite M15] the “Formation of trazodone phase I metabolite by recombinant human CYP2E1 (as LC/MS peak areas)” value (CYP2E1) was 0, the “Formation of trazodone phase I metabolite by recombinant human CYP2B6 (as LC/MS peak areas)” value (CYP2B6) was 0 and the “Formation of trazodone phase I metabolite by recombinant human FMO3 (as LC/MS peak areas)” value (FMO3) was 0. For the same compound, the “Formation of trazodone phase I metabolite by recombinant human MAOB (as LC/MS peak areas)” value (MAOB) was 0, the “Formation of trazodone phase I metabolite by recombinant human CYP2A6 (as LC/MS peak areas)” value (CYP2A6) was 0 and the “Formation of trazodone phase I metabolite by recombinant human CYP3A5 (as LC/MS peak areas)” value (CYP3A5) was 3343.
